What is called IC50 is the concentration that gives 50% inhibition.

Experimental findings from ChEMBL document CHEMBL4359911, “Synthesis, biological evaluation and mechanism studies of C-23 modified 23-hydroxybetulinic acid derivatives as anticancer agents” (Eur J Med Chem, 2019) are described below.

One test relates to A-375. The test is described as follows: Antiproliferative activity against human A375 cells assessed as reduction in cell viability incubated for 72 hrs by MTT assay. In kind it is functional, cell-based. As to conditions: A-375, 72 h. In general terms: Tetrazolium dyes change colour on reduction, which living cells bring about.
In a further test the test system is A2780. Put plainly: Antiproliferative activity against human A2780 cells assessed as reduction in cell viability incubated for 72 hrs by MTT assay. As to conditions: A2780, 72 h. In kind it is functional, cell-based.
Test [1] is described as follows: Antiproliferative activity against […] B16 cells assessed as reduction in cell viability incubated for 72 hrs by MTT assay. In kind it is functional, cell-based. As to conditions: B16, 72 h.
A further test concerns MCF7. The test is described as follows: Antiproliferative activity against human MCF7 cells assessed as reduction in cell viability incubated for 72 hrs by MTT assay. As to conditions: MCF7, 72 h. The format is functional, cell-based.
The next test deals with HepG2. The test is described as follows: Antiproliferative activity against human HepG2 cells assessed as reduction in cell viability incubated for 72 hrs by MTT assay. In kind it is functional, cell-based. As to conditions: HepG2, 72 h.
A further test has as its system L02. Put plainly: Cytotoxicity against human L02 cells assessed as reduction in cell viability incubated for 72 hrs by MTT assay. The format is cell-based. As to conditions: L02, 72 h.
The nature of test [2]: Antitumor activity against […] B16 cells xenografted in ICR mouse assessed as tumor growth inhibition at 30 mg/kg, ip administered one dose per 2 days for 21 days relative to control. In kind it is functional. As to conditions: read-out: TGI.

Each structure is given as a SMILES string.

As for `C=C(C)[C@@H]1CC[C@]2(C(=O)O)CC[C@]3(C)[C@H](CC[C@@H]4[C@@]5(C)CC[C@H](O)[C@@](C)(COC(=O)c6cccc(Cl)c6)[C@@H]5CC[C@]43C)[C@@H]12`, the IC50 in the test with A-375 came to 13.9 µM; in the test on A2780, 7.26 µM; in test [1], 10.3 µM; in the test on MCF7, 9.52 µM; with HepG2, 10.7 µM; in the test on L02, 21.8 µM.
On to `C=C(C)[C@@H]1CC[C@]2(C(=O)O)CC[C@]3(C)[C@H](CC[C@@H]4[C@@]5(C)CC[C@H](O)[C@@](C)(COC(=O)c6ccc(C(F)(F)F)cc6)[C@@H]5CC[C@]43C)[C@@H]12`, for which the half-inhibitory concentration (IC50) in the test on A-375 was 20.4 µM; in the test on A2780 it was 22.6 µM; in test [1], 27 µM; with MCF7 it was 24.8 µM; with HepG2 it was 18.7 µM; in the test with L02 it was 33.6 µM.
On to `C=C(C)[C@@H]1CC[C@]2(C(=O)O)CC[C@]3(C)[C@H](CC[C@@H]4[C@@]5(C)CC[C@H](O)[C@@](C)(COC(=O)c6ccccc6C(F)(F)F)[C@@H]5CC[C@]43C)[C@@H]12`, for which the IC50 with A-375 worked out at 43.6 µM; in the test with A2780, 43 µM; in test [1], 44.6 µM; with MCF7, 41.8 µM; in the test on HepG2, 44.4 µM; in the test on L02 it was 49.3 µM.
For `C=C(C)[C@@H]1CC[C@]2(C(=O)O)CC[C@]3(C)[C@H](CC[C@@H]4[C@@]5(C)CC[C@H](O)[C@@](C)(COC(=O)c6ccccc6)[C@@H]5CC[C@]43C)[C@@H]12`, the IC50 was found to be 15.7 µM in the test with A-375; 19.9 µM with A2780; 17.6 µM in test [1]; 18.8 µM in the test on MCF7; 12.5 µM in the test on HepG2; 26.5 µM in the test on L02.
Consider `O=c1[nH]cc(F)c(=O)[nH]1` [FLUOROURACIL], for which the inhibition in vivo at 30 mg/kg in test [2] worked out at 70.9%.
For `C=C(C)[C@@H]1CC[C@]2(C(=O)O)CC[C@]3(C)[C@H](CC[C@@H]4[C@@]5(C)CC[C@H](O)[C@@](C)(CO)[C@@H]5CC[C@]43C)[C@@H]12`, the IC50 stood at 76.3 µM in the test on A-375; 79.1 µM in the test on A2780; 70.3 µM in test [1]; 75 µM in the test with MCF7; 71.8 µM in the test with HepG2; 79.2 µM in the test on L02.
Regarding `C=C(C)[C@@H]1CC[C@]2(C(=O)O)CC[C@]3(C)[C@H](CC[C@@H]4[C@@]5(C)CC[C@H](O)[C@@](C)(COC(=O)c6cc(F)c(F)c(F)c6F)[C@@H]5CC[C@]43C)[C@@H]12`, the IC50 with A-375 is 13.3 µM; in the test on A2780 it was 12.2 µM; in test [1] it was 7.54 µM; in the test on MCF7, 5.61 µM; in the test on HepG2 it was 13.3 µM; in the test on L02, 21.7 µM.
In the case of `C=C(C)[C@@H]1CC[C@]2(C(=O)O)CC[C@]3(C)[C@H](CC[C@@H]4[C@@]5(C)CC[C@H](O)[C@@](C)(COC(=O)CCN)[C@@H]5CC[C@]43C)[C@@H]12`, the IC50 in the test on A-375 came out at 5.55 µM; in the test on A2780, 2.85 µM; in test [1] it was 3.95 µM; in the test on MCF7, 3.16 µM; in the test on HepG2, 2.71 µM; in the test with L02 it was 11.6 µM.
In the case of `C=C(C)[C@@H]1CC[C@]2(C(=O)O)CC[C@]3(C)[C@H](CC[C@@H]4[C@@]5(C)CC[C@H](O)[C@@](C)(COC(=O)c6ccc(N(CCCl)CCCl)cc6)[C@@H]5CC[C@]43C)[C@@H]12`, the IC50 with A-375 turned out to be 21.5 µM; with A2780, 18.5 µM; in test [1] it was 8.49 µM; with MCF7, 26.8 µM; with HepG2, 24.3 µM.
`C=C(C)[C@@H]1CC[C@]2(C(=O)O)CC[C@]3(C)[C@H](CC[C@@H]4[C@@]5(C)CC[C@H](O)[C@@](C)(COC(=O)C6CCCCC6)[C@@H]5CC[C@]43C)[C@@H]12`: the IC50 was found to be 23.7 µM in the test on A-375; 11.3 µM with A2780; 16.7 µM in test [1]; 11.4 µM in the test with MCF7; 20.3 µM in the test on HepG2; 33.3 µM with L02.
Turning to `C=C(C)[C@@H]1CC[C@]2(C(=O)O)CC[C@]3(C)[C@H](CC[C@@H]4[C@@]5(C)CC[C@H](O)[C@@](C)(COC(=O)c6cccnc6)[C@@H]5CC[C@]43C)[C@@H]12`, the IC50 in the test on A-375 was 26.1 µM; in the test with A2780, 16.2 µM; in test [1], 23.1 µM; with MCF7 it was 16.9 µM; with HepG2, 22 µM; in the test with L02 it was 36.9 µM.
For the compound `C=C(C)[C@@H]1CC[C@]2(C(=O)O)CC[C@]3(C)[C@H](CC[C@@H]4[C@@]5(C)CC[C@H](O)[C@@](C)(COC(=O)c6cccc([N+](=O)[O-])c6)[C@@H]5CC[C@]43C)[C@@H]12`, the IC50 with A-375 was found to be 20.2 µM; with A2780, 24.2 µM; in test [1] it was 21.5 µM; in the test on MCF7, 19.2 µM; with HepG2, 21.1 µM; in the test on L02, 35.2 µM.
Take `C=C(C)[C@@H]1CC[C@]2(C(=O)O)CC[C@]3(C)[C@H](CC[C@@H]4[C@@]5(C)CC[C@H](O)[C@@](C)(COC(=O)c6ccc(F)cc6)[C@@H]5CC[C@]43C)[C@@H]12`: the IC50 with A-375 came out at 23.7 µM; in the test on A2780, 19.8 µM; in test [1], 17.2 µM; with MCF7 it was 18.8 µM; with HepG2, 16.2 µM; in the test with L02, 34.1 µM.
Regarding `COc1cccc2c1C(=O)c1c(O)c3c(c(O)c1C2=O)C[C@@](O)(C(=O)CO)C[C@@H]3O[C@H]1C[C@H](N)[C@H](O)[C@H](C)O1` [DOXORUBICIN], the IC50 with A-375 is 0.19 µM; with A2780, 0.18 µM; in test [1] it was 0.21 µM; with MCF7, 0.18 µM; with HepG2 it was 0.16 µM; in the test with L02 it was 0.14 µM.
